Counter-ions that a name gives are not always drawn.
How the values were obtained:
[1] = test system: NCI-H292 lung cancer cells; assay: FDA drug screening, complete media vs cholesterol-free media with simvastatin (TABLE 2); format: cell-based, human; conditions: for Cholesterol-free media + simvastatin (0.04 μM) / Complete Media: NCI-H292 cells; for Difference: >0 enhanced anti-cancer activity, about 0 neutral, <0 antagonist
[2] = test system: NCI-H292 lung cancer cells; assay: FDA drug screening, complete media vs cholesterol-free media without statin (TABLE 1); format: cell-based, human
[3] = drug in cholesterol-free media with simvastatin 0.04 μM
[4] = complete media vs cholesterol-free media + simvastatin (0.04 μM)
[5] = Complete minus Cholesterol-free; >0 enhanced anti-cancer activity, about 0 neutral, <0 antagonist
[6] = NCI-H292 cells, cholesterol-free media without statin
[7] = FDA library drug in cholesterol-free media with simvastatin 0.04 μM
[8] = NCI-H292 cells, cholesterol-free media without statin, FDA drug library screen
[9] = NCI-H292 cells, complete media, FDA drug library screen
[10] = complete vs cholesterol-free media; >0 enhanced anti-cancer activity, about 0 neutral, <0 antagonist
[11] = FDA drug library screen, cholesterol-free media with simvastatin 0.04 μM
[12] = FDA drug library screen, complete media
[13] = Complete minus Cholesterol-free; greater than 0 enhanced anti-cancer activity, about 0 neutral, below 0 antagonist
[14] = NCI-H292 cells, FDA drug library screen, cholesterol-free media without statin
[15] = NCI-H292 cells, FDA drug library screen, complete media
[16] = complete vs cholesterol-free media; greater than 0 enhanced anti-cancer activity, about 0 neutral, below 0 antagonists
[17] = FDA library drug in complete media
[18] = cholesterol-free media with simvastatin 0.04 μM, cell growth value in FDA drug screen
[19] = complete media, cell growth value in FDA drug screen
[20] = complete media minus cholesterol-free media + simvastatin

What does the source list for `CN1C(=O)CC(c2ccccc2)C1=O` (centres unmarked) [Phensuximide]?
Cholesterol-free media + simvastatin (0.04 μM) [1, 3]: 1.556; Complete Media ([1]; drug in complete media): 1.333; Difference [1, 4]: −0.22; Difference [2, 5]: −0.30; Cholesterol-free [2, 6]: 1.128; Complete ([2]; NCI-H292 cells, complete media): 0.8334

For `NC(=O)N/N=C/c1ccc([N+](=O)[O-])o1` [Nitrofurazone], which “Cholesterol-free media + simvastatin (0.04 μM)” value [1, 7] is on record?
Its value is 1.854.

What about the Difference [1, 4] of the same compound?
Its Difference is −0.70.

And the Cholesterol-free [2, 8]?
The Cholesterol-free was 1.281.

And the Complete [2, 9]?
The Complete was 1.416.

And the Difference [2, 10]?
The Difference was 0.13.

`OC[C@@H](O)[C@@H](O)[C@H](O)[C@@H](O)CO` [D-Sorbitol] was tested. Which “Cholesterol-free media + simvastatin (0.04 μM)” value [1, 11] did it give?
The value was 1.142.

And the “Complete Media” value [1, 12]?
Its value is 1.023.

What about the Difference [1, 4] of the same compound?
Its Difference is −0.12.

What about the Cholesterol-free [2, 8] of the same compound?
Its Cholesterol-free is 1.006.

What about the Complete [2, 9] of the same compound?
The Complete was 1.32.

What about the Difference [2, 10] of the same compound?
The Difference was 0.31.

Which “Cholesterol-free media + simvastatin (0.04 μM)” value [1, 11] does the source give for `CN(C)c1cc(CNCC(C)(C)C)c(O)c2c1C[C@H]1C[C@H]3[C@H](N(C)C)C(O)=C(C(N)=O)C(=O)[C@@]3(O)C(O)=C1C2=O` [Omadacycline (hydrochloride)] here?
Its value is 1.209.

And the “Complete Media” value [1, 12]?
The value was 1.089.

What about the Difference [1, 4] of the same compound?
The Difference was −0.12.

What about the Difference [2, 13] of the same compound?
Its Difference is −0.15.

And the Cholesterol-free [2, 14]?
Its Cholesterol-free is 1.103.

And the Complete [2, 15]?
Its Complete is 0.9531.

With `CCOC(=O)C1=C(C)NC(C)=C(C(=O)OC)C1c1cccc([N+](=O)[O-])c1` (centres unmarked) [Nitrendipine] as the compound, how does the “Cholesterol-free media + simvastatin (0.04 μM)” value ([1]; cholesterol-free media with simvastatin 0.04 μM, FDA drug library screen (TABLE 2)) read?
The value was 1.103.

And the “Complete Media” value ([1]; complete media, FDA drug library screen (TABLE 2))?
The value was 1.042.

And the Difference ([1]; complete media minus cholesterol-free media + simvastatin (0.04 μM))?
The Difference was −0.06.

And the Cholesterol-free [2, 6]?
Its Cholesterol-free is 1.587.

And the Complete ([2]; NCI-H292 cells, complete media)?
The Complete was 1.208.

What about the Difference [2, 16] of the same compound?
Its Difference is −0.38.

`C[C@]12CC[C@@H]3c4ccc(O)cc4CC[C@H]3[C@@H]1CCC2=O` [Estrone] was tested. Which “Cholesterol-free media + simvastatin (0.04 μM)” value [1, 7] did it give?
The value was 1.409.

And the “Complete Media” value [1, 17]?
Its value is 1.088.

What about the Difference [1, 4] of the same compound?
The Difference was −0.32.

What about the Cholesterol-free [2, 6] of the same compound?
Its Cholesterol-free is 1.426.

What about the Complete ([2]; NCI-H292 cells, complete media) of the same compound?
Its Complete is 1.109.

And the Difference [2, 16]?
The Difference was −0.32.

For `CO[C@H]1O[C@H](COS(=O)(=O)O)[C@@H](O[C@@H]2O[C@@H](C(=O)O)[C@@H](O[C@H]3O[C@H](COS(=O)(=O)O)[C@@H](O[C@@H]4O[C@H](C(=O)O)[C@@H](O[C@H]5O[C@H](COS(=O)(=O)O)[C@@H](O)[C@H](O)[C@H]5NS(=O)(=O)O)[C@H](O)[C@H]4O)[C@H](OS(=O)(=O)O)[C@H]3NS(=O)(=O)O)[C@H](O)[C@H]2OS(=O)(=O)O)[C@H](O)[C@H]1NS(=O)(=O)O` [Fondaparinux (sodium)], which “Cholesterol-free media + simvastatin (0.04 μM)” value [1, 7] is on record?
The value was 1.182.

And the “Complete Media” value [1, 17]?
Its value is 0.8937.

What about the Difference [1, 4] of the same compound?
The Difference was −0.29.

And the Difference [2, 13]?
The Difference was −0.10.

And the Cholesterol-free [2, 14]?
Its Cholesterol-free is 1.098.

What about the Complete [2, 15] of the same compound?
The Complete was 1.

For `CCCCCCO[C@@H](C)c1cccc(-c2csc(NC(=O)c3cc(Cl)c(/C=C(\C)C(=O)O)c(Cl)c3)n2)c1OC` [Lusutrombopag], which “Cholesterol-free media + simvastatin (0.04 μM)” value [1, 3] is on record?
Its value is 0.9436.

And the “Complete Media” value ([1]; drug in complete media)?
The value was 0.7827.

And the Difference [1, 4]?
Its Difference is −0.16.

And the Difference [2, 5]?
The Difference was −0.26.

What about the Cholesterol-free [2, 6] of the same compound?
Its Cholesterol-free is 1.148.

What about the Complete ([2]; NCI-H292 cells, complete media) of the same compound?
Its Complete is 0.8829.

Which results are given for `CC1=C(C(=O)O)N2C(=O)[C@@H](NC(=O)[C@H](N)c3ccccc3)[C@H]2SC1` [Cephalexin (monohydrate)]?
Cholesterol-free media + simvastatin (0.04 μM) [1, 7]: 1.59; Complete Media [1, 17]: 0.9161; Difference [1, 4]: −0.67; Cholesterol-free [2, 6]: 1.506; Complete ([2]; NCI-H292 cells, complete media): 1.062; Difference [2, 16]: −0.44

What does the source list for `Oc1c(Cl)cc(Cl)c2cccnc12` [Chloroxine]?
Cholesterol-free media + simvastatin (0.04 μM) [1, 18]: 0.8888; Complete Media [1, 19]: 1.011; Difference [1, 20]: 0.12; Cholesterol-free [2, 8]: 1.086; Complete [2, 9]: 1.288; Difference [2, 10]: 0.20

`CN(C)CC(c1ccc(O)cc1)C1(O)CCCCC1` (centres unmarked) [Desvenlafaxine] was tested. Which “Cholesterol-free media + simvastatin (0.04 μM)” value [1, 18] did it give?
Its value is 1.047.

And the “Complete Media” value [1, 19]?
Its value is 1.102.

What about the Difference [1, 20] of the same compound?
The Difference was 0.05.

And the Cholesterol-free [2, 6]?
The Cholesterol-free was 1.158.

And the Complete ([2]; NCI-H292 cells, complete media)?
The Complete was 0.8309.

What about the Difference [2, 16] of the same compound?
Its Difference is −0.33.

— patent US20250144067A1, “PERSONALIZED STARVATION THERAPY FOR CANCER” (Faeth Therapeutics, Inc., priority 2021, published 2025)
